The values below come from PMC7939473, “Unique active-site and subsite features in the arabinogalactan-degrading GH43 exo-β-1,3-galactanase from Phanerochaete chrysosporium” (The Journal of Biological Chemistry, 2021).

In this assay the target is T1, Pc1,3Gal43A (Phanerodontia chrysosporium, UniProt Q50KB2, E208A).
T1 construct: signal peptide removed; Gln21-Tyr448 (428 residues) plus two extra N-terminal residues Glu19-Phe20 from restriction site; GH43_sub24 catalytic domain (21-325) + CBM35 (326-448); expressed in Pichia pastoris, N-glycosylated at Asn79, Asn194, Asn389; monomer in solution
Description: X-ray crystallography (co-crystal, […] Å). As to conditions: ligand-binding site of the CBM35 domain (not in catalytic site); 10 mM Gal3; pH 4.5.

T1 sequence (Q50KB2 entry or part of it E208A): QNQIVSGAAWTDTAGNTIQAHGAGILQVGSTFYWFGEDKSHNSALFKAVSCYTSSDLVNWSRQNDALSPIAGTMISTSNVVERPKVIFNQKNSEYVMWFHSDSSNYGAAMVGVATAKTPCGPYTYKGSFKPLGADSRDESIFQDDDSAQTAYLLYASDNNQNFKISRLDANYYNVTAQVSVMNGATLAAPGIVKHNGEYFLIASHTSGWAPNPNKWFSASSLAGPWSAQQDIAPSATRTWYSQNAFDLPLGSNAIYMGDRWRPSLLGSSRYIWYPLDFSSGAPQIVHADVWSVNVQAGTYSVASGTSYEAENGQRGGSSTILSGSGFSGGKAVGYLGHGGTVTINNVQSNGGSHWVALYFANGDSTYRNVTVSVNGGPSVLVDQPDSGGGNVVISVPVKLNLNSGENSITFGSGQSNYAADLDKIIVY

With `OC[C@H]1O[C@@H](O[C@H]2[C@@H](O)[C@@H](CO)O[C@@H](O[C@H]3[C@@H](O)[C@@H](CO)OC(O)[C@@H]3O)[C@@H]2O)[C@H](O)[C@@H](O)[C@H]1O` (stereo partly drawn) [Gal3, β-1,3-galactotriose], the “X-ray crystallography (co-crystal, 2.3 Å)” value is given as “In E208A_Gal3, electron density of Gal3 was observed in the ligand-binding site of PcCBM35”.
